Measurements published in ChEMBL document CHEMBL1152860, “Synthesis and antiproliferative activity of 3-amino-N-phenyl-1H-indazole-1-carboxamides” (2009).
Active and inactive are the calls of the source. The rule behind the calls is not given here.

Key:
[1] = system: K562; experiment: Growth inhibition of human K562 cells after 48 hrs by SRB assay; type: functional; details: K562, 48 h
[2] = system: K562; experiment: Growth inhibition of drug-resistant human K562 cells after 48 hrs by SRB assay; type: functional; details: K562, 48 h
[3] = system: K562; experiment: Cell cycle arrest in human K562 cells assessed as accumulation at S phase at 42.7 uM after 24 hrs using propidium iodide staining by flow cytometry; type: functional, cell-based
[4] = system: RPMI-8226; experiment: Growth inhibition of human RPMI8226 cells after 48 hrs by SRB assay; type: functional; details: RPMI-8226, 48 h
[5] = system: SK-OV-3; experiment: Growth inhibition of human SKOV3 cells after 48 hrs by SRB assay; type: functional; details: SK-OV-3, 48 h
[6] = system: MDA-MB-435; experiment: Growth inhibition of human MDA-MB-435 cells after 48 hrs by SRB assay; type: functional; details: MDA-MB-435, 48 h
[7] = system: SNB-19; experiment: Growth inhibition of human SNB19 cells after 48 hrs by SRB assay; type: functional; details: SNB-19, 48 h
[8] = system: HT-29; experiment: Growth inhibition of human HT-29 cells after 48 hrs by SRB assay; type: functional; details: HT-29, 48 h
[9] = system: KM12; experiment: Growth inhibition of human KM12 cells after 48 hrs by SRB assay; type: functional; details: KM12, 48 h
[10] = system: OVCAR-5; experiment: Growth inhibition of human OVCAR5 cells after 48 hrs by SRB assay; type: functional; details: OVCAR-5, 48 h
[11] = Growth inhibition of human Hs 578T cells after 48 hrs by SRB assay; type: functional
[12] = system: PC-3; experiment: Growth inhibition of human PC3 cells after 48 hrs by SRB assay; type: functional; details: PC-3, 48 h
[13] = system: RXF 393; experiment: Growth inhibition of human […] cells after 48 hrs by SRB assay; type: functional; details: RXF 393, 48 h
[14] = system: NCI-H322M; experiment: Growth inhibition of human NCI-H322M cells after 48 hrs by SRB assay; type: functional
[15] = system: MDA-MB-231; experiment: Growth inhibition of human MDA-MB-231 cells after 48 hrs by SRB assay; type: functional; details: MDA-MB-231, 48 h
[16] = system: NCI-H460; experiment: Growth inhibition of human NCI-H460 cells after 48 hrs by SRB assay; type: functional; details: NCI-H460, 48 h
[17] = system: LOX IMVI; experiment: Growth inhibition of human LOXIMVI cells after 48 hrs by SRB assay; type: functional
[18] = system: SF-268; experiment: Growth inhibition of human SF268 cells after 48 hrs by SRB assay; type: functional; details: SF-268, 48 h
[19] = system: UACC-62; experiment: Growth inhibition of human UACC62 cells after 48 hrs by SRB assay; type: functional; details: UACC-62, 48 h
[20] = system: NCI/ADR-RES; experiment: Growth inhibition of human NCI/ADR-RES cells after 48 hrs by SRB assay; type: functional
[21] = system: 786-0; experiment: Growth inhibition of human 786-0 cells after 48 hrs by SRB assay; type: functional; details: 786-0, 48 h
[22] = system: UACC-257; experiment: Growth inhibition of human UACC257 cells after 48 hrs by SRB assay; type: functional; details: UACC-257, 48 h
[23] = system: T47D; experiment: Growth inhibition of human T47D cells after 48 hrs by SRB assay; type: functional
[24] = system: BT-549; experiment: Growth inhibition of human BT549 cells after 48 hrs by SRB assay; type: functional; details: BT-549, 48 h
[25] = system: HCT-116; experiment: Growth inhibition of human HCT116 cells after 48 hrs by SRB assay; type: functional; details: HCT-116, 48 h
[26] = system: MOLT-4; experiment: Growth inhibition of human MOLT4 cells after 48 hrs by SRB assay; type: functional; details: MOLT-4, 48 h
[27] = system: HOP-62; experiment: Growth inhibition of human HOP62 cells after 48 hrs by SRB assay; type: functional; details: HOP-62, 48 h
[28] = system: UO-31; experiment: Growth inhibition of human UO31 cells after 48 hrs by SRB assay; type: functional; details: UO-31, 48 h
[29] = system: NCI-H23; experiment: Growth inhibition of human NCI-H23 cells after 48 hrs by SRB assay; type: functional; details: NCI-H23, 48 h
[30] = system: IGROV-1; experiment: Growth inhibition of human IGROV1 cells after 48 hrs by SRB assay; type: functional; details: IGROV-1, 48 h
[31] = system: DU-145; experiment: Growth inhibition of human DU145 cells after 48 hrs by SRB assay; type: functional; details: DU-145, 48 h
[32] = system: MCF7; experiment: Growth inhibition of human MCF7 cells after 48 hrs by SRB assay; type: functional; details: MCF7, 48 h
[33] = system: ACHN; experiment: Growth inhibition of human ACHN cells after 48 hrs by SRB assay; type: functional
[34] = system: SK-MEL-2; experiment: Growth inhibition of human SK-MEL-2 cells after 48 hrs by SRB assay; type: functional; details: SK-MEL-2, 48 h
[35] = system: A498; experiment: Growth inhibition of human A498 cells after 48 hrs by SRB assay; type: functional; details: A498, 48 h
[36] = system: SK-MEL-28; experiment: Growth inhibition of human SK-MEL-28 cells after 48 hrs by SRB assay; type: functional; details: SK-MEL-28, 48 h
[37] = system: COLO 205; experiment: Growth inhibition of human COLO205 cells after 48 hrs by SRB assay; type: functional; details: COLO 205, 48 h
[38] = system: A549; experiment: Growth inhibition of human A549 cells after 48 hrs by SRB assay; type: functional; details: A549, 48 h
[39] = system: HCT-15; experiment: Growth inhibition of human HCT15 cells after 48 hrs by SRB assay; type: functional; details: HCT-15, 48 h
[40] = system: SW-620; experiment: Growth inhibition of human SW620 cells after 48 hrs by SRB assay; type: functional; details: SW-620, 48 h
[41] = system: M14; experiment: Growth inhibition of human M14 cells after 48 hrs by SRB assay; type: functional; details: M14, 48 h
[42] = system: SN12C; experiment: Growth inhibition of human SN12C cells after 48 hrs by SRB assay; type: functional
[43] = system: CAKI-1; experiment: Growth inhibition of human Caki1 cells after 48 hrs by SRB assay; type: functional; details: CAKI-1, 48 h
[44] = system: TK-10; experiment: Growth inhibition of human TK10 cells after 48 hrs by SRB assay; type: functional; details: TK-10, 48 h
[45] = system: U-251; experiment: Growth inhibition of human U251 cells after 48 hrs by SRB assay; type: functional; details: U-251, 48 h
[46] = system: NCI-H522; experiment: Growth inhibition of human NCI-H522 cells after 48 hrs by SRB assay; type: functional; details: NCI-H522, 48 h
[47] = system: HOP-92; experiment: Growth inhibition of human HOP92 cells after 48 hrs by SRB assay; type: functional; details: HOP-92, 48 h
[48] = system: SF-539; experiment: Growth inhibition of human SF539 cells after 48 hrs by SRB assay; type: functional; details: SF-539, 48 h
[49] = system: EKVX; experiment: Growth inhibition of human EKVX cells after 48 hrs by SRB assay; type: functional
[50] = system: OVCAR-4; experiment: Growth inhibition of human OVCAR4 cells after 48 hrs by SRB assay; type: functional; details: OVCAR-4, 48 h
[51] = system: HCC 2998; experiment: Growth inhibition of human HCC2998 cells after 48 hrs by SRB assay; type: functional; details: HCC 2998, 48 h
[52] = system: NCI-H226; experiment: Growth inhibition of human NCI-H226 cells after 48 hrs by SRB assay; type: functional; details: NCI-H226, 48 h
[53] = system: Malme-3M; experiment: Growth inhibition of human MALME-3M cells after 48 hrs by SRB assay; type: functional
[54] = system: OVCAR-8; experiment: Growth inhibition of human OVCAR8 cells after 48 hrs by SRB assay; type: functional; details: OVCAR-8, 48 h
[55] = system: HL-60(TB); experiment: Growth inhibition of human HL-60(TB) cells after 48 hrs by SRB assay; type: functional; details: HL-60, 48 h
[56] = system: SF-295; experiment: Growth inhibition of human SF295 cells after 48 hrs by SRB assay; type: functional; details: SF-295, 48 h
[57] = system: OVCAR-3; experiment: Growth inhibition of human OVCAR-3 cells after 48 hrs by SRB assay; type: functional; details: OVCAR-3, 48 h
[58] = system: SNB-75; experiment: Growth inhibition of human SNB75 cells after 48 hrs by SRB assay; type: functional; details: SNB-75, 48 h
[59] = system: SK-MEL-5; experiment: Growth inhibition of human SK-MEL-5 cells after 48 hrs by SRB assay; type: functional; details: SK-MEL-5, 48 h
[60] = system: K562; experiment: Cell cycle arrest in human K562 cells assessed as accumulation at G2/M phase at 42.7 uM after 24 hrs using propidium iodide staining by flow cytometry; type: functional, cell-based
[61] = system: SR; experiment: Growth inhibition of human SR cells after 48 hrs by SRB assay; type: functional

With `CCc1nc2cc(Cl)ccc2c(=O)n1-c1n[nH]c2ccccc12` the GI50 [1] was 10.7 µM and the GI50 [2] was 11.7 µM.

For `O=C(Nc1ccccc1OC(F)(F)F)Nc1n[nH]c2ccccc12`, the Activity [3] was “Active”, the GI50 [4] was 52 µM and the GI50 [1] was 42.7 µM. For the same molecule, the GI50 [5] was > 100 µM, the GI50 [6] was 51.5 µM and the GI50 [7] was 78.3 µM. It also gave a GI50 [8] of 26.1 µM, a GI50 [9] of 23.4 µM and a GI50 [10] of 34.3 µM. For the same molecule, the GI50 [11] was 19.4 µM, the GI50 [12] was 31.4 µM and the GI50 [13] was 24.3 µM. The GI50 [14] was 81.6 µM, the GI50 [15] was 17.9 µM and the GI50 [16] was 15 µM. For the same molecule, the GI50 [17] was 22.5 µM, the GI50 [18] was 16.2 µM and the GI50 [19] was 31.7 µM. The GI50 [20] was 44.2 µM, the GI50 [21] was 38.7 µM and the GI50 [22] was 47.2 µM. The GI50 [23] was 37.5 µM, the GI50 [24] was 76.4 µM and the GI50 [25] was 16.2 µM. It also gave a GI50 [26] of 59.1 µM, a GI50 [27] of 19.6 µM and a GI50 [28] of 17.4 µM. The GI50 [29] was 50 µM, the GI50 [30] was 4.59 µM and the GI50 [31] was 51.7 µM. For the same molecule, the GI50 [32] was 1750 nM, the GI50 [33] was 31.1 µM and the GI50 [34] was 81.4 µM. For the same molecule, the GI50 [35] was > 100 µM, the GI50 [36] was 42.2 µM and the GI50 [37] was 71.8 µM. It also gave a GI50 [38] of 15.7 µM, a GI50 [39] of 36.2 µM and a GI50 [40] of 36.7 µM. The GI50 [41] was 22.5 µM, the GI50 [42] was 72.5 µM and the GI50 [43] was 31 µM. It also gave a GI50 [44] of 37.9 µM, a GI50 [45] of 31.1 µM and a GI50 [46] of 33.9 µM. The GI50 [47] was 12.9 µM, the GI50 [48] was 30.5 µM and the GI50 [49] was 48.2 µM. It also gave a GI50 [50] of 37.7 µM, a GI50 [51] of 55.9 µM and a GI50 [52] of 26.1 µM. It also gave a GI50 [53] of 76.9 µM, a GI50 [54] of 29.6 µM and a GI50 [55] of 17.9 µM. For the same molecule, the GI50 [56] was 39 µM, the GI50 [57] was 90.8 µM and the GI50 [58] was 17.5 µM. The GI50 [59] was 28.7 µM, the Activity [60] was “Active” and the GI50 [61] was 48.9 nM. For the same molecule, the TGI [61] was 24 µM and the CC50 ([61]; read-out: LC50 (the source's name)) was > 100 µM.
